Measurements as given in PubChem BioAssay AID1963863 (Molecular Pharmacology Branch, DTP, NCI, 2024).

System: 931267-113-T-J1-PDC KRAS spheroid with HUVEC/MSC, viability
Test: Anticancer human tumor 931267-113-T-J1-PDC patient-derived colon adenocarcinoma cell line growth inhibition [KRAS2]
Details: for IC50: curve of first compound; for viability, T/C: stronger effect = lower value
How it was run: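 KRAS-mutant tumor cells were grown as spheroids with HUVEC endothelial cells and human MSCs as stroma. Targeted agents were tested alone and with KRAS pathway inhibitors. Doses started at or near clinical Cmax, or 10 microM, descending half-log.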

[1] = second compound 0.1 µM, first compound 0.0316 µM
[2] = second compound 0.1 µM, first compound 0.1 µM
[3] = second compound 0.1 µM, first compound 0.316 µM
[4] = second compound 0.1 µM, first compound 1 µM
[5] = second compound 0.1 µM, first compound 3.16 µM
[6] = second compound 0.1 µM, first compound 10 µM
[7] = second compound 0.316 µM, first compound 0.0316 µM
[8] = second compound 0.316 µM, first compound 0.1 µM
[9] = second compound 0.316 µM, first compound 0.316 µM
[10] = second compound 0.316 µM, first compound 1 µM
[11] = second compound 0.316 µM, first compound 3.16 µM
[12] = second compound 0.316 µM, first compound 10 µM
[13] = second compound 1 µM, first compound 0.0316 µM
[14] = second compound 1 µM, first compound 0.1 µM
[15] = second compound 1 µM, first compound 0.316 µM
[16] = second compound 1 µM, first compound 1 µM
[17] = second compound 1 µM, first compound 3.16 µM
[18] = second compound 1 µM, first compound 10 µM
[19] = second compound 3.16 µM, first compound 0.0316 µM
[20] = second compound 3.16 µM, first compound 0.1 µM
[21] = second compound 3.16 µM, first compound 0.316 µM
[22] = second compound 3.16 µM, first compound 1 µM
[23] = second compound 3.16 µM, first compound 3.16 µM
[24] = second compound 3.16 µM, first compound 10 µM
[25] = second compound 10 µM, first compound 0.0316 µM
[26] = second compound 10 µM, first compound 0.1 µM
[27] = second compound 10 µM, first compound 0.316 µM
[28] = second compound 10 µM, first compound 1 µM
[29] = second compound 10 µM, first compound 3.16 µM
[30] = second compound 10 µM, first compound 10 µM
[31] = second compound 0.1 µM, first compound 0.00316 µM
[32] = second compound 0.1 µM, first compound 0.01 µM
[33] = second compound 0.316 µM, first compound 0.00316 µM
[34] = second compound 0.316 µM, first compound 0.01 µM
[35] = second compound 1 µM, first compound 0.00316 µM
[36] = second compound 1 µM, first compound 0.01 µM
[37] = second compound 3.16 µM, first compound 0.00316 µM
[38] = second compound 3.16 µM, first compound 0.01 µM
[39] = second compound 10 µM, first compound 0.00316 µM
[40] = second compound 10 µM, first compound 0.01 µM
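Note: compound exposure lasted 7 days before the readout.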
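Throughout, for viability, T/C: 100% = DMSO vehicle control viability.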

SMILES	IC50 (second compound 0.1 µM)	IC50 (second compound 0.316 µM)	IC50 (second compound 1 µM)	IC50 (second compound 3.16 µM)	IC50 (second compound 10 µM)	viability, T/C [1]	viability, T/C [2]	viability, T/C [3]	viability, T/C [4]	viability, T/C [7]	viability, T/C [8]	viability, T/C [9]	viability, T/C [10]	viability, T/C [13]	viability, T/C [14]	viability, T/C [15]	viability, T/C [19]	viability, T/C [20]	viability, T/C [25]	viability, T/C [26]	other results
CC(C)NCC(C(=O)N1CCN(c2ncnc3c2C(C)CC3O)CC1)c1ccc(Cl)cc1 (stereo not given) + CNCc1ccccc1-c1csc(C(C)Nc2nc(C)nc3cc(OC)c(OC)cc23)c1	4930 nM	5430 nM	90.5 nM	< 31.6 nM	< 31.6 nM	96.3%	90.4%	79%	68.4%	76%	70%	63.6%	54.6%	60.7%	47.9%	38.9%	0.1%	0.18%	0.17%	0.15%	viability, T/C [5]: 59.3%; viability, T/C [6]: 38.6%; viability, T/C [11]: 69.1%; viability, T/C [12]: 31.1%; viability, T/C [16]: 33.4%; viability, T/C [17]: 21.6%; viability, T/C [18]: 19.2%; viability, T/C [21]: 0.09%; viability, T/C [22]: 0.1%; viability, T/C [23]: 0.14%; viability, T/C [24]: 0.16%; viability, T/C [27]: 0.15%; viability, T/C [28]: 0.14%; viability, T/C [29]: 0.25%; viability, T/C [30]: 1.22%
CCN1CCN(Cc2ccc(Nc3ncc(F)c(-c4cc(F)c5nc(C)n(C(C)C)c5c4)n3)nc2)CC1 + CNCc1ccccc1-c1csc(C(C)Nc2nc(C)nc3cc(OC)c(OC)cc23)c1	149 nM	70.1 nM	6.73 nM	< 3.16 nM	< 3.16 nM	56.5%	56.6%	43.2%	28.6%	46.4%	49%	38.5%	3.67%	28.7%	32.2%	1.49%	0.08%	0.09%	0.18%	0.15%	viability, T/C [31]: 76.8%; viability, T/C [32]: 82.9%; viability, T/C [33]: 75.2%; viability, T/C [34]: 60.7%; viability, T/C [35]: 60.1%; viability, T/C [36]: 43.3%; viability, T/C [16]: 0.15%; viability, T/C [37]: 0.13%; viability, T/C [38]: 0.12%; viability, T/C [21]: 0.05%; viability, T/C [22]: 0.14%; viability, T/C [39]: 4.51%; viability, T/C [40]: 0.16%; viability, T/C [27]: 1.23%; viability, T/C [28]: 0.18%
CCNC(=O)CC1N=C(c2ccc(Cl)cc2)c2cc(OC)ccc2-n2c(C)nnc21 (stereo not given) + CNCc1ccccc1-c1csc(C(C)Nc2nc(C)nc3cc(OC)c(OC)cc23)c1	775 nM	240 nM	170 nM	< 31.6 nM	< 31.6 nM	96.5%	109%	63.5%	54.9%	75.7%	75.2%	42%	45.7%	64.4%	53%	43.6%	0.1%	0.1%	0.15%	0.46%	viability, T/C [5]: 46.4%; viability, T/C [6]: 37.3%; viability, T/C [11]: 30.8%; viability, T/C [12]: 30.9%; viability, T/C [16]: 36.7%; viability, T/C [17]: 31%; viability, T/C [18]: 18.1%; viability, T/C [21]: 0.08%; viability, T/C [22]: 0.08%; viability, T/C [23]: 0.07%; viability, T/C [24]: 0.16%; viability, T/C [27]: 0.12%; viability, T/C [28]: 0.12%; viability, T/C [29]: 0.12%; viability, T/C [30]: 0.2%
Cn1ncnc1[C@H]1c2n[nH]c(=O)c3cc(F)cc(c23)N[C@@H]1c1ccc(F)cc1 + CNCc1ccccc1-c1csc(C(C)Nc2nc(C)nc3cc(OC)c(OC)cc23)c1	> 100 nM	> 100 nM	< 0.316 nM	< 0.316 nM	< 0.316 nM	80.9%	72.6%	–	–	52.5%	56.6%	–	–	52.6%	32.3%	–	0.1%	0.19%	0.16%	0.98%	viability, T/C (second compound 0.1 µM, first compound 0.000316 µM): 95.4%; viability, T/C (second compound 0.1 µM, first compound 0.001 µM): 85.4%; viability, T/C [31]: 92.4%; viability, T/C [32]: 84%; viability, T/C (second compound 0.316 µM, first compound 0.000316 µM): 62.4%; viability, T/C (second compound 0.316 µM, first compound 0.001 µM): 66.7%; viability, T/C [33]: 66.5%; viability, T/C [34]: 59.9%; viability, T/C (second compound 1 µM, first compound 0.000316 µM): 42.1%; viability, T/C (second compound 1 µM, first compound 0.001 µM): 61.8%; viability, T/C [35]: 43.2%; viability, T/C [36]: 32.8%; viability, T/C (second compound 3.16 µM, first compound 0.000316 µM): 0.09%; viability, T/C (second compound 3.16 µM, first compound 0.001 µM): 0.09%; viability, T/C [37]: 0.09%; viability, T/C [38]: 0.07%; viability, T/C (second compound 10 µM, first compound 0.000316 µM): 0.14%; viability, T/C (second compound 10 µM, first compound 0.001 µM): 0.13%; viability, T/C [39]: 0.13%; viability, T/C [40]: 0.14%
